pIC50: −log10 of the molar value.
Key:
cyclooxygenase 2 (COX-2) = assay: Procedure I: ability of the compounds to inhibit cyclooxygenase 2 (6217/6218); format: biochemical, Sheep; settings: Wh Cell
cyclooxygenase 1 (COX-1) = assay: Procedure II: cyclooxygenase 1 activity (6226); format: biochemical, Rat; settings: RBL-1 cell homogenate supernatant
Experimental: [Worded in the source for another target; this target is reported under the same test.] Rat basophilic leukemia cells (RBL-1; 5×10^7 viable cells/mL) were disrupted by homogenization on ice (four 20 sec bursts) with a Brinkman polytron. […] The pellet was discarded and the supernatant was saved as the source of enzymes. The supernatant was pre-incubated for five minutes at 37° C. in the presence of 2 mM of CaCl2 and compound or vehicle (1% DMSO). The conversion of AA into products by CO and LO was initiated by adding 10 μL (50 μCi) of 1-^14 C-AA to each tube and incubated at 37° C. for 20 minutes. The reaction was stopped by adjusting the pH of each sample to 3 to 3.5 with 2 M formic acid. Samples were extracted with three volumes of chloroform to isolate the products of 5-LO formed during the reaction. Fractions were dried under nitrogen, then resuspended in 40 μL of chloroform and spotted onto silica gel HL plates.
The plates were developed in A-9 solvent. The dried plates were analyzed using a Bioscan Imaging TLC scanner to determine the percentage of radiolabelled AA converted to 5-HETE (LO product) in each sample. The percentage of inhibition was calculated by:
[1-(5-HETE test)]/5-HETE control×100=% inhibition The IC50 was determined using a curve fit in Cricket Graph (Computer Associated), which provided the equation of the regressed line used in the calculation.

pIC50 (cyclooxygenase 2 (COX-2))	pIC50 (cyclooxygenase 1 (COX-1))	SMILES
< 5.00	< 5.00	CS(=O)(=O)c1ccc(NNC(=O)c2ccccc2)cc1 [Example 6]
5.00	< 5.00	O=C(NNc1ccccc1)c1ccccc1 [Example 2]
6.33	< 5.00	COc1ccc(C(=O)NNc2ccc(Cl)cc2)cc1 [Example 9]
6.48	< 5.00	Cc1ccc(NNC(=O)c2ccccc2)cc1 [Example 4]
6.89		COc1ccc(NNC(=O)c2ccc(Cl)cc2)cc1 [Example 10]
6.28	< 5.00	O=C(NNc1ccc(Cl)cc1)c1ccccc1 [Example 5]
8.00	< 5.00	Cc1ccc(NNC(=O)c2ccc(Cl)cc2)cc1 [Example 7]
6.48	< 5.00	O=C(NNc1ccccc1)c1ccc(Cl)cc1 [Example 3]
< 5.00	< 5.00	COc1ccc(C(=O)NNc2ccccc2)cc1 [Example 11]
< 5.00	< 5.00	CS(=O)(=O)c1ccc(NNC(=O)c2ccc(Cl)cc2)cc1 [Example 8]
6.74	< 5.00	COc1ccc(NNC(=O)c2ccccc2)cc1 [Example 12]
6.47	< 5.00	O=C(NNc1ccc(Cl)cc1)c1ccc(Cl)cc1 [Example 1]

From patent publication US6077869A, “Aryl phenylhydrazides as selective COX-2 inhibitors for treatment of inflammation” (Ortho-McNeil Pharmaceutical, Inc., priority 1999, dated 2000)
